Test results taken from US6368831B1, “Treatment of hyperproliferative disorders” (Childrens Hospital Los Angeles, priority 1998, dated 2002).

Tests used:
[1] = tested on: SK-N-RA neuroblastoma cells; assay: DIMSCAN cytotoxicity assay, SK-N-RA; format: cell-based; conditions: for Combination Index (C.I.) at LD99: PPMP isomer plus HPR at 1:1 micromolar ratio, +96-120 hours
Experimental: (§1) Cytotoxicity is determined using the DIMSCAN assay system (R. Proffitt et al., Cytometry 24, 204-213 (1996); T. Frgala et al., Proc. AACR, 36, 303 (1995). The system employs digital imaging microscopy to quantify viable cells, which selectively accumulate fluorescein diacetate to become brightly fluorescent. The system is capable of measuring cytotoxicity over a 4-5 log dynamic range by quenching the residual fluorescence of dead and dying cells with eosin Y and quantifying the total fluorescence of viable cells using digital thresholding. Measured fluorescence is directly proportionate to the number of viable cells. A comparison of the total fluorescence of a drug-treated cell population to the fluorescence of a similar number of untreated cells yields a survival fraction. In brief, 5000 to 10,000 SK-N-RA neuroblastoma cells/well are replicate plated into 60 wells of a 96-well tissue culture plate in 0.1 cc media and allowed to attach overnight. Drug(s) are then added in 0.05 cc media to the final concentrations indicated. There are 12 wells treated per drug concentration. Twelve wells receive drug-vector only to the appropriate final concentration and serve as controls for the plate. Cells are incubated for 96-120 hours at 37° C. in 5% CO2. Fluorescein diacetate is then added to each well in 0.05 cc media to a final concentration of 8 microgram/cc. Cells are incubated for a further 15 minutes at 37° C. and 0.03 cc of 0.5% eosin Y is added to each well. Total fluorescence of viable cells is then measured by digital imaging microscopy.
As reported above, we have succeeded in increasing the cytotoxicity of 4-HPR through inhibition of several ceramide-related pathways. Most of the inhibitors used have been only studied in vitro. […]
Methods. […] Cytotoxocity is expressed as the fraction of cells surviving (Survival Fraction, S.F.). […] Cytotoxic synergy was analyzed by Combination Index (C.I.) analysis calculated at the dose lethal to 99% of exposed cells (LD99). Statistical analysis of the differences in mean cytotoxicity was evaluated by the unpaired, two-sided Student's t test.

[2] = tested on: CHLA-90 neuroblastoma cells; assay: DIMSCAN cytotoxicity assay, CHLA-90; format: cell-based; conditions: for Combination Index (C.I.) at LD99: PPMP isomer plus HPR at 1:1 micromolar ratio, +96-120 hours; for cell survival on addition of safingol to the retinoid: retinoid plus safingol 3:1 molar ratio vs retinoid alone
Experimental: as §1
(§2) Methods. Cells were added in 100 μL whole medium per well to 96-well microplates for DIMSCAN cytotoxicity assay as previously described. Cell lines used were the neuroblastoma cell lines CHLA-90 and LAN-6. At Time=0, either all-trans-retinoic acid (ATRA), 13-cis-retinoic acid (13-cis-RA) or a combination of retinoid plus safingol at a 3:1 molar ratio were added in 50 μL whole medium. Plates were incubated and assayed for cytotoxicity by DIMSCAN assay at +120 for CHLA-90 cells and+144 hours for LAN-6 cells.
Methods. To determine the manner in which 4-HPR or HPR+safingol induced cell death in neuroblastoma cells, morphological evidence of apoptosis and/or necrosis was assessed in CHLA-90 cells in the presence or absence of a specific as inhibitor of apoptosis, the neural cell-penetrant, pan-caspase enzyme inhibitor, BOC-d-fink (Enzyme Systems Products, Livermore, Calif.). […] CHLA-90 cells were plated in duplicate in whole medium in Lab Tek chamber slides (Nunc, Naperville, Ill.), allowed to attach for 24 hours, and then treated in the presence or absence of BOC-d-fink (40 μM) for one hour prior to treatment with HPR (10 μM). Control cells were treated with vehicle solvents of 0. 1% ethanol (4-HPR) and/or 0.2% DMSO (BOC-d-fink). Morphological features of apoptosis (DNA condensation and/or apoptotic bodies) were visualized in undetached cells at +24 or +48 hours using blue nuclear fluorescence induced by the supravital DNA stain Hoechst 33342 (10 μg/ml for 30 mins at 37° C.), while necrotic cells and advanced apoptotic cells were recognized by red fluorescent staining with propidium iodide (0.5 μM/ml). Red fluorescently-staining cells with condensed nuclear remnants were scored as apoptotic cells. For cells assayed at +48 hours, additional BOC-d-fink (40 μM) or appropriate control vehicle was added at +24 hours. Cells were observed using filters appropriate for each dye sequentially on an Olympus Vanox epifluorescence microscope. Mutiple random fields of cells (of ˜100-500 cells each) were counted and photographed for viable cells, apoptotic cells, and necrotic cells. To further examine cells treated with HPR, cytotoxicity assays were performed on CHLA-90 cells pretreated with or without 40 μM BOC-d-fmk for one hour prior to the addition of 4-HPR (3-10 μM) and assayed at +24 hours by DIMSCAN assay to assess the effect of caspase inhibition on viability. […]

[3] = tested on: LAN-6 neuroblastoma cells; assay: DIMSCAN cytotoxicity assay, LAN-6; format: cell-based, human; conditions: +144 hours; for cell survival on addition of safingol to the retinoid: retinoid plus safingol 3:1 molar ratio vs retinoid alone
Experimental: as §1, with “A comparison of the total fluorescence of a drug-treated cell population to the fluorescence of a similar number of untreated cells yields a survival fraction.” left out
as §2

MCF7/GCS cells = assay: DIMSCAN cytotoxicity assay, MCF7/GCS tet OFF vs tet ON; format: cell-based, human; conditions: 96 hours, P<0.005 at >6 μM HPR, safingol 0-4 μM
From the text: We have shown that HPR generates ceramide in neuroblastoma tumor cell lines in a dose- and time-depenent manner (B. Maurer et al., J. Natl. Cancer Inst. (1999)(in press)). Glucosylceramide (GC) is a nontoxic metabolite of ceramide. Ceramide is converted into glucosylceramide by the action of glucosylceramide synthase (GCS). Glucosylceramide synthase (GCS) has been transfected into human MCF7 breast cancer cells in a tetracycline-inducible expression construct in the MCF7/GCS cell line (Y. Liu et al., J. Biol. Chem. 274:1140-46 (1999)). […] We have exposed MCF7/GCS cells to HPR, safingol and HPR+safingol in the absence, and in the presence, of doxycycline.
Methods. MCF7/GCS cells were plated and incubated in RPMI medium with 10% fetal bovine serum and 200 microgram/ml Hygromycin B (tet OFF) for DIMSCAN cytotoxicity assays as previously described. To increase GCS expression, MCF7/GCS cells were also incubated in the above medium with 3 microgram/ml doxycycline (tet ON) for three days prior to replating them for DIMSCAN cytotoxicity assay. DIMSCAN assays with doxycycline-induced (tet ON) cells also included 3 microgram/ml doxycycline in the medium. Both “tet OFF” and “tet ON” MCF7/GCS cells were exposed to HPR, safingol and HPR+safingol (3:1 molar ratio) for 96 hours and assayed for survival fraction by DIMSCAN as previously described.

[4] = Phase I; one hour infusion at 120 mg/m^2; cited from earlier work
CHLA-90 cells = assay: Flow cytometry sub G0/G1 DNA content, CHLA-90; format: cell-based, human; conditions: BOC-d-fmk 40 μM, HPR 10 μM, +24 hours
[5] = tested on: Neuro2a neuroblastoma cells; conditions: cited from earlier work

## CCCCCCCCCCCCC/C=C/[C@@H](O)[C@H](CO)N(C)C [N-DMS, d-erythro-N,N-dimethylsphingosine]
[1]; 5 μM fenretinide fixed plus 5 μM PPMP fixed plus N-DMS, 20% O2
  cytotoxicity when added to fenretinide and PPMP: increased cytotoxicity

## CCCCCCCCCCCCCCC[C@H](O)[C@@H](N)CO [Safingol, (2S,3S)-2-amino-1,3-octadecanediol]
[2]; safingol alone at 4 μM, +120 hours
  Survival Fraction: 0.11
[3]; safingol alone at 4 μM
  Survival Fraction: 0.39
MCF7/GCS cells
  change of cytotoxicity in tet ON (doxycycline, GCS induced) compared to tet OFF cells: no significant decrease
[4]
  reported toxicities: no reported toxicities
  serum levels during infusion: 3000 nM

## CCCCCCCCCCCCCCCC(=O)NC(CN1CCOCC1)C(O)c1ccccc1 [D,L-erythro-PPMP, 1-phenyl-2-palmitoylamino-3-morpholino-1-propanol]
[1]
  Combination Index (C.I.) at LD99: < 0.06
[2]
  Combination Index (C.I.) at LD99: 0.18

## CC1=C(/C=C/C(C)=C/C=C/C(C)=C\C(=O)O)C(C)(C)CCC1 [13-cis-RA, 13-cis-retinoic acid]
[2]; +120 hours
  cell survival on addition of safingol to the retinoid: significant decrease in the cell survival
[3]
  cell survival on addition of safingol to the retinoid: significant decrease in the cell survival

## COC(=O)CC(NC(=O)OC(C)(C)C)C(=O)CF (stereo not drawn) [BOC-d-fmk]
CHLA-90 cells
  sub G0/G1 DNA-fragmentation induced by HPR: abrogated

## CCCCCCCCCCCCCCCC(=O)NC(CN1CCOCC1)C(O)c1ccccc1 [D,L-threo-PPMP, 1-phenyl-2-palmitoylamino-3-morpholino-1-propanol]
[1]
  Combination Index (C.I.) at LD99: < 0.01
[2]
  Combination Index (C.I.) at LD99: < 0.09

## CC1=C(/C=C/C(C)=C/C=C/C(C)=C/C(=O)O)C(C)(C)CCC1 [ATRA, all-trans-retinoic acid]
[5]
  increase in the level of ceramide: 1.5 ×
[2]; +120 hours
  cell survival on addition of safingol to the retinoid: significant decrease in the cell survival
[3]
  cell survival on addition of safingol to the retinoid: significant decrease in the cell survival
